Values after ≈ are worked out from the molar mass of the structure shown. Like-named read-outs stand apart in the source and are kept apart here. Ends that are not written are not given here.
Legend:
[1] = tested on: E. coli MG1655; assay: MIC assay, broth microdilution, aerobic growth; format: cell-based; settings: E. coli MG1655, EZRDM, 30°C, 6 hr, two-fold serial dilutions, reproducible to the same factor of two
Protocol: (§1) We have measured MICs in aerobic and anaerobic fermentation conditions using a series of two-fold dilutions for the four natural AMPs in the same rich, chemically defined EZRDM medium at 30°C (Table 1). The MIC in anaerobic fermentation conditions is 4-fold higher for LL-37 and 8-fold higher for melittin. […] For cecropin A and for indolicidin, the MIC is the same in aerobic and fermentation conditions. Evidently the activity against E. coli of some, but not all, natural AMPs is enhanced by the presence of oxygen. For LL-37, the primary focus of this study, we also measured the MIC in conditions enabling anaerobic respiration (no oxygen, but supplemented with 10 mM KNO3; Table 2).
The aerobic MIC values for the various AMPs (Table 1) were determined using the broth microdilution method as previously described. Two-fold serial dilutions of LL-37 in 1× EZRDM were performed in separate rows of a polystyrene 96-well plate, with each plate containing an inoculum of E. coli MG1655. The inoculum was a 1:20 dilution from a bulk culture at midlog phase (OD600 = 0.5) grown at 30°C. The plate was incubated at 30°C and shaken at 200 rpm in a Lab-Line Orbital Environ Shaker (model 3527) for 6 hr. The MIC value was taken as the lowest concentration for which no growth was discernible (<0.05 OD) after 6 hr.

[2] = tested on: E. coli MG1655; assay: MIC assay, anaerobic fermentation (oxygen scavenged with PCA/PCD); format: cell-based; settings: E. coli MG1655, EZRDM, 30°C, 6 hr, PCA 10 mM / PCD 100 nM
Protocol: as §1
Anaerobic MIC values (Table 1) were measured on a 96-well plate that was sealed with plastic wrap. Cells were incubated in EZRDM containing protocatechuic acid (PCA) at 10 mM and protocatechuate 3,4-dioxygenase (PCD) at 100 nM to scavenge oxygen. The plate was incubated at 30°C for 6 hr, followed by OD measurements.

[3] = tested on: E. coli MG1655; settings: cited from earlier work
Protocol: Table 1 Antimicrobial peptides and their MICs for E. coli MG1655 in aerobic growth vs anaerobic fermentation in EZRDM at 30°C. | column: MIC (μM) ^1 / Aerobic || Additional evidence that the onset of strong CellROX* fluorescence coincides with entry of LL-37 into the periplasm comes from two-color imaging experiments using CellROX Green and a red fluorescent variant of the peptide, Rh-LL-37. […] Under aerobic growth conditions, at t = 0 we flowed 25 μM CellROX Green plus 8 μM Rh-LL-37 across plated E. coli cells. As before, wea ... || To test for the importance of LL-37 stereochemistry on the magnitude of oxidative effects, we repeated the CellROX* assay in aerobic conditions using 4 μM of the all-D stereoisomer of LL-37. […] In addition, our earlier work found the same MIC for D- and L-LL-37 [19].

[4] = tested on: MG1655 E. coli; format: cell-based; settings: 8 μM Rh-LL-37 + 25 μM CellROX Green, aerobic, 59 cells from three repeats
[5] = tested on: E. coli MG1655; parameters: method as in 2 sources, one per row (each row's own in cited_ref): ref 20 = [20]; PMID 25561551; doi:10.1073/pnas.1417703112; 20 Choi H , Yang Z , Weisshaar JC . Single-cell, real-time detection of oxidative stress induced in Escherichia coli by the antimicrobial peptide CM15 . Proc Natl Acad Sci U S A . 2015; 112 ( 3 ): E3 ||| ref 22 = [22]; PMID 26493221; doi:10.1021/acschembio.5b00547; 22 Choi H , Chakraborty S , Liu R , Gellman SH , Weisshaar JC . Single-Cell, Time-Resolved Antimicrobial Effects of a Highly Cationic, Random Nylon-3 Copolymer on Live Escherichia coli . ACS Chem Biol; settings: cited from earlier work

In the case of `CC[C@H](C)[C@H](N)C(=O)N[C@@H](CC(C)C)C(=O)N1CCC[C@H]1C(=O)N[C@@H](Cc1c[nH]c2ccccc12)C(=O)N[C@@H](CCCCN)C(=O)N[C@@H](Cc1c[nH]c2ccccc12)C(=O)N1CCC[C@H]1C(=O)N[C@@H](Cc1c[nH]c2ccccc12)C(=O)N[C@@H](Cc1c[nH]c2ccccc12)C(=O)N1CCC[C@H]1C(=O)N[C@@H](Cc1c[nH]c2ccccc12)C(=O)N[C@@H](CCCNC(=N)N)C(=O)N[C@@H](CCCNC(=N)N)C(N)=O` [Indolicidin], the “MIC (μM) Aerobic” value [1] is reported as 32 µM (≈ 61 µg/mL) and the “MIC (μM) Fermentation” value [2] is reported as 32 µM (≈ 61 µg/mL).
In the case of Rhodamine B-LL-37 [Rh-LL-37], the “MIC compared with unlabeled L-LL-37” value ([3]; MG1655 E. coli) is given as “the same MIC” and the “Timing of CellROX* fluorescence relative to periplasmic Rh-LL-37 fluorescence” value [4] is given as “rise on the same time scale”.
For “KWKLFKKIEKVGQNIRDGIIKAGPAVAVVGQATQIAK-NH2 [Cecropin A]”, the “MIC (μM) Aerobic” value [1] was 0.9 µM and the “MIC (μM) Fermentation” value [2] was 0.9 µM.
For CM15, the “MIC (μM) Aerobic” value ([3]; E. coli MG1655, EZRDM, 30°C, aerobic, CM15 from earlier study) is given as 5 µM, the “MIC (μM) Fermentation” value ([5]; E. coli MG1655, EZRDM, 30°C, anaerobic fermentation, CM15 from earlier study) is given as 100 µM and the “MIC in anaerobic (fermentation) relative to aerobic growth” value ([5]; E. coli, fold higher in anaerobic) is given as 20 fold.

Reference: publication PMC5509375, “Oxidative stress induced in E. coli by the human antimicrobial peptide LL-37” (PLoS Pathogens, 2017)
